Reference: patent US4480118A, “Carboxylic acid ester and an insecticidal and/or acaricidal composition containing the same” (priority 1981, dated 1984)
Values after ≈ are worked out from the molar mass of the structure shown. Read-outs that look alike come from different tables or passages of the source.

What was measured:
northern house mosquito = assay: Activity of oil spray against adult female northern house mosquito (glass chamber); assay type: in vivo
Procedure: (§1) 0.1 Part of each compound Nos. 10, 12, 15, 17, 18, 19, 22, 23 and 29 of this invention is dissolved in deodorized kerosene and made up to 100 parts with kerosene to obtain an oil spray.
(§2) Ten adult houseflies and ten adult female northern house mosquitos were released in a glass chamber, 70×70×70 cm in size. An oil spray preparation (0.5 ml) obtained in Preparation Example 1 was sprayed inside the chamber and the insects were exposed to the descending mist for 10 minutes, during which time the number of knocked-down insects was counted at predetermined time intervals to determine the 50% knockdown time (KT50). On the following day, the dead and alive insects were observed.

tobacco cutworm = assay: Insecticidal activity against tobacco cutworm; assay type: in vivo; conditions: 24 h
Procedure: An artificial diet (15 g) for tobacco cutworm was wet with 2 ml of the prescribed aqueous dilution of an emulsifiable concentrate obtained in Preparation Example 2 or of that obtained from reference compounds. The diet thus treated was placed in a polyethylene cup of 11 cm in diameter.

housefly [1] = assay: Activity of oil spray against adult housefly (glass chamber); assay type: in vivo; conditions: oil spray 0.5 ml, 10 minutes exposure; for mortality, House fly: observed on the following day, 1440 min
Procedure: as §1, §2

housefly [2] = assay: Insecticidal activity against housefly (Filter paper bait and contact method); assay type: in vivo; conditions: Musca domestica
Procedure: Each 20 parts of the present compounds No. 1 to No. 29, 10 parts of an emulsifier (Sorpol 3005X; trademark for Toho Chemical Co.) and 70 parts of xylene are thoroughly mixed by stirring to obtain an emulsifiable concentrate of each compound.
A piece of filter paper, 5.5 cm in diameter, was laid on the bottom of a polyethylene cup of the identical inner diameter. An emulsifiable concentrate prepared in the same manner as in Preparation Example 2 was diluted with water. To the filter paper, was added dropwise 0.7 ml of the diluted sample (500 ppm in concentration). Sucrose (30 mg) was placed on the filter paper to serve as bait. Ten adult female houseflies were released into the cup, closed with a cover, and observed for the number of dead and alive insects after 48 hours to calculate the mortality (2 replications).

green rice leafhopper = assay: Insecticidal activity against green rice leafhopper; conditions: Nephotettix cincticeps, 24 h
housefly [3] = assay: Insecticidal activity against housefly (Topical application method); assay type: in vivo; conditions: dorsal thorax, adult female, 24 hours
Procedure: The present compounds and the reference compounds were diluted with acetone to prescribed concentrations. Each 0.5 μl of the diluted samples was applied topically with a microsyringe onto the dorsal thorax of an adult female housefly. The flies were fed and observed for the number of dead and alive insects after 24 hours. LD50 (median lethal dose) was calculated from the mortalities at each dosage by probit method.

[4] = oil spray 0.5 ml, 10 minutes exposure
[5] = oil spray 0.5 ml, 10 minutes exposure, observed on the following day, 1440 min
[6] = read-out: LC50 (median lethal concentration)
[7] = read-out: Percent mortality days after spraying: 0
[8] = 500 ppm, 48 hours, adult female houseflies, read-out: Mortality
[9] = northern house mosquito, in vivo, 24 h

With `CC1(C)C(C(=O)OC(C#N)c2cccc(Oc3ccccc3)c2)C12Cc1ccccc12` (stereo not drawn) [Compound 19] the “KT50 (50% knockdown time), Northern house mosquito” value (northern house mosquito; [4]) was 492 s, the “mortality, Northern house mosquito” value (northern house mosquito; [5]) was 100% and the LC50 (tobacco cutworm; [6]) was 5 µg/mL (≈ 12.2 µM). For the same compound, the “KT50 (50% knockdown time), House fly” value (housefly [1]) was 600 s, the “mortality, House fly” value (housefly [1]) was 80% and the mortality at 500 ppm (housefly [2]; 48 h) was 100%.

With `CC1(C)C(C(=O)OC(C#N)c2ccc(F)c(Oc3ccccc3)c2)C12Cc1ccccc12` (stereo not drawn) [Compound 20] the mortality at 50 ppm (green rice leafhopper; [7]) was 100%, the mortality at 50 ppm (green rice leafhopper; read-out: Percent mortality days after spraying: 3) was 100% and the mortality at 50 ppm (green rice leafhopper; read-out: Percent mortality days after spraying: 7) was 90%. For the same compound, the mortality at 500 ppm (housefly [2]; 48 h) was 100%.

`CC1(C)C(C(=O)OCc2cccc(Oc3ccccc3)c2)C12Cc1ccccc1C2` (stereo not drawn) [Compound 21] gave a mortality at 500 ppm (housefly [2]; [8]) of 100%.

In the case of `C#CCN1CC(=O)N(COC(=O)C2C(C)(C)C23Cc2ccccc2C3)C1=O` (stereo not drawn) [Compound 22], the “mortality, Northern house mosquito” value (northern house mosquito; [9]) was 10%, the “KT50 (50% knockdown time), Northern house mosquito” value (northern house mosquito; [4]) was 344 s and the “KT50 (50% knockdown time), House fly” value (housefly [1]) was 80 s. The “mortality, House fly” value (housefly [1]) was 90% and the mortality at 500 ppm (housefly [2]; [8]) was 100%.

For `C#CCC=C(C)C(C#C)OC(=O)C1C(C)(C)C12Cc1ccccc1C2` (stereo not drawn) [Compound 23], the “LD50 (median lethal dose)” value (housefly [3]) was 0.045 μg/female, the “mortality, Northern house mosquito” value (northern house mosquito; [9]) was 70% and the “KT50 (50% knockdown time), Northern house mosquito” value (northern house mosquito; [4]) was 360 s. The “KT50 (50% knockdown time), House fly” value (housefly [1]) was 388 s, the “mortality, House fly” value (housefly [1]) was 60% and the mortality at 500 ppm (housefly [2]; [8]) was 100%.

`C#CC(C#C)OC(=O)C1C(C)(C)C12Cc1ccccc1C2` (stereo not drawn) [Compound 24] was tested, and the mortality at 500 ppm (housefly [2]; [8]) was 100%.

`CC1(C)C(C(=O)OCC=C(Cl)Cc2ccccc2)C12Cc1ccccc1C2` (stereo not drawn) [Compound 25] gave an LC50 (tobacco cutworm; read-out: LC50 (median lethal concentration), treated artificial diet, third-instar larvae, 24 hours) of 4 µg/mL (≈ 10.5 µM) and a mortality at 500 ppm (housefly [2]; [8]) of 100%.

In the case of `C=CCc1cccc2c1CCC2OC(=O)C1C(C)(C)C12Cc1ccc(F)cc1C2` (stereo not drawn) [Compound 26], the mortality at 500 ppm (housefly [2]; [8]) was 100%.

`CC1(C)C(C(=O)OCc2c(Cl)c(Cl)c(Cl)c(Cl)c2Cl)C12Cc1ccccc1C2` (stereo not drawn) [Compound 28] showed an LC50 (tobacco cutworm; treated artificial diet, third-instar larvae, 24 hours, read-out: LC50 (median lethal concentration)) of 8.7 µg/mL (≈ 18.2 µM) and a mortality at 500 ppm (housefly [2]; [8]) of 100%.

`CC1(C)C(C(=O)OC2C=C(Cc3ccccc3)C(=O)C2)C12Cc1ccccc1C2` (stereo not drawn) [Compound 29] was tested, and the “mortality, Northern house mosquito” value (northern house mosquito; [9]) was 70%, the “KT50 (50% knockdown time), Northern house mosquito” value (northern house mosquito; [4]) was 296 s and the “KT50 (50% knockdown time), House fly” value (housefly [1]) was 298 s. The “mortality, House fly” value (housefly [1]) was 40% and the mortality at 500 ppm (housefly [2]; [8]) was 100%.

For `CNC(=O)Oc1cccc2ccccc12` [NAC, 1naphthyl N--methylcarbamate, reference compound], the mortality at 250 ppm (green rice leafhopper; [7]) was 50%.

In the case of `CC(C)=CC1C(C(=O)OCc2cccc(Oc3ccccc3)c2)C1(C)C` (stereo not drawn) [drawing 58, reference compound], the “LD50 (median lethal dose)” value (housefly [3]) was 0.26 μg/female.

For `CC1(C)C(C(=O)OC(C#N)c2cccc(Oc3ccccc3)c2)C12C=Cc1ccccc12` (stereo not drawn) [drawing 61, reference compound], the “LD50 (median lethal dose)” value (housefly [3]) was 0.16 μg/female.

For `CC(C)=CC1C(C(=O)OCc2cccc(Oc3ccccc3)c2)C1(C)C` (stereo not drawn) [drawing 62, reference compound], the LC50 (tobacco cutworm; [6]) was 24 µg/mL (≈ 68.5 µM).

In the case of `CC1(C)C(C(=O)OC(C#N)c2cccc(Oc3ccccc3)c2)C12C=Cc1ccccc12` (stereo not drawn) [drawing 63, reference compound], the LC50 (tobacco cutworm; [6]) was 46.1 µg/mL (≈ 109 µM).

`CC1(C)C(C(=O)OC(C#N)c2cccc(Oc3ccccc3)c2)C12C=Cc1ccccc12` (stereo not drawn) [drawing 64, reference compound] was tested, and the “KT50 (50% knockdown time), Northern house mosquito” value (northern house mosquito; [4]) was 600 s, the “mortality, Northern house mosquito” value (northern house mosquito; [5]) was 50% and the “KT50 (50% knockdown time), House fly” value (housefly [1]) was greater than 600 s.

For `CC(C)=CC1C(C(=O)OC(C#N)c2cccc(Oc3ccccc3)c2)C1(C)C` (stereo not drawn) [reference compound], the “LD50 (median lethal dose)” value (housefly [3]) was 0.079 μg/female.
